Measured values from patent US7968128B2, “Plant extract compositions for affecting sleep” (VIVA Pharmaceutical Inc., priority 2008, dated 2011).

Legend:
Type in all cases: in vivo, Swiss mice
mice [1] = assay: Locomotor activity measurements (square arena); details: for Locomotor activity count: dose 1 mg/kg oral, mean ± SE, n = 10
Procedure: (§1) Male and female Swiss mice having weights between about 18 to 22 g were used in the Examples provided below. Mice were housed in groups of 10 mice in a breeding room having a controlled temperature of about 22±2° C. Each group had free access to standard diet pellets and tap water.
(§2) Each of the extract combinations “BS” and “BY” produced in Example 1, was prepared for oral administration (PO) by ultrasonically dispersing each extract in distilled water containing about 0.5% Tween-80. Diazepam was also prepared for administration by ultrasonically dispersing the Diazepam in distilled water containing about 0.5% Tween-80.
(§3) Each of the BY, BS, and Diazepam compositions was administered orally to separate groups of mice at a dosage of 10 mL/kg body weight.
(§4) Dosages of the BS, BY, Diazepam compositions, and the sterile distilled water were administered orally to groups of mice, wherein each group comprised at least 10 mice.
The effects of the BS treatments and the BY treatments on inhibition of central nervous system were evaluated by measurements of the locomotor activities of mice.
Each mouse was placed in the center of a square arena having dimensions of approximately 60 cm×60 cm×35 cm. […] The arena was illuminated using red 25 W bulbs on the ceiling. The total number of squares each mouse entered in a 5 minute period was recorded by an overhead video camera. The camera was linked to a monitor and video recorder in an adjacent laboratory.
The locomotor activity of the mice were recorded both before and 30-minutes, 60-minutes, 120-minutes, and 180-minutes after administration of one of BS, BY, Diazepam, and the control.
All locomotor activity recordings were carried out with the observer unaware of the treatment that was administered to each of the mice.

mice [2] = assay: Sodium barbital induced sleep time measurement
Procedure: as §1, §2, §3, §4
Mice were administered 90 mg/kg sodium barbital via intraperitoneal injection (ip). Mice were then positioned on their back. The time that elapsed between administration of the sodium barbital and when each animal lost their righting reflex represented the time period between latency to the onset of sleep. The BS, BY, Diazepam, and the control treatments were administered to separate groups of mice. Each group of mice received their treatment about 7 days prior to the administration of the sodium barbital. The duration of sleeping time was calculated as the time interval between the loss of righting reflex to the time of recovery of this reflex. In studying the effects of the BS and BY extracts, the comparison of the durations of sleeping time between mice receiving the BS, BY, Diazepam treatments and the control treatments, was used as the main criterion of measurement.

mice [3] = assay: Inclined plane test
Procedure: as §1, §2
Each of the BY, BS, and Diazepam compositions was administered orally to separate groups of mice at a dosage of 10 mL/kg body weight. […]
Effects of the BS and BY compositions on the motor functions of mice were evaluated using an inclined plane test.
The inclined plane consisted of two rectangular steel boards connected at one end by a hinge. […] The maximum inclination of the plane at which a mouse could maintain itself in position for at least 5 seconds was recorded, and interpreted to represent the mouse's functional ability. The test was performed in triplicate for each mouse and the mean value was recorded as the maximum inclination.

mice [4] = assay: Traction test
Procedure: as §1
Each of the extract combinations “BS” and “BY” produced in Example 1, was prepared for oral administration (PO) by ultrasonically dispersing each extract in distilled water containing about 0.5% Tween-80. Diazepam was also prepared for administration by ultrasonically dispersing the Diazepam in distilled water containing about 0.5% Tween-80. […]
The effects of the BS and BY compositions on inhibition of muscle coordination systems were evaluated using a traction test.
A wire having a diameter of about 1.6 mm and length of about 30 cm was stretched and secured horizontally at a height of about 30 cm above a surface. […] The duration of time each mouse clung to the wire was recorded up to a maximum of 60 seconds.
The test was performed about 60 minutes after the administration of one of the BS, BY, Diazepam, and the control compositions. […] The durations of clinging time measured for each group of mice were calculated using the mean value of triplicates for each mouse. If the duration of clinging time was greater than 60 seconds, the mouse was released from the wire, and the clinging time was recorded 60 seconds.

[5] = dose 1.0 mg/kg oral, sodium barbital 90 mg/kg ip, mean ± SE, n = 10

SMILES: CN1C(=O)CN=C(c2ccccc2)c2cc(Cl)ccc21 [Diazepam]
- effects on the locomotor activity of the mice (in words) (mice [1]; all doses and times of Table 2): None of the BS, BY and Diazepam compositions had any significant effects
- Locomotor activity count (mice [1]; 0 minutes (before administration), squares entered in 5 min): 80.4 ± 6.7
- Locomotor activity count (mice [1]; 30 minutes after administration): 68.9 ± 4.9
- Locomotor activity count (mice [1]; 60 minutes after administration): 56.7 ± 3.8
- Locomotor activity count (mice [1]; 120 minutes after administration): 52.6 ± 3.6
- Locomotor activity count (mice [1]; 180 minutes after administration): 47.6 ± 3.4
- sodium barbital-induced sleeping time compared to the controls (in words) (mice [2]; dosage 1.0 mg/kg): significantly prolonged
- Duration of Sleep (mice [2]; [5]): 72.8 ± 7.5 min
- Sleep latency (mice [2]; [5]): 169.1 ± 12.4 s
- Maximum inclination (mice [3]; dose 9 mg/kg oral, position held at least 5 seconds, mean ± SE, n = 10): 51.5 ± 0.9 degrees
- degrees of inclination compared to control (in words) (mice [3]; doses of Table 4): markedly reduced
- Duration of clinging (mice [4]; dose 9 mg/kg oral, about 60 minutes after administration, maximum 60 seconds, mean ± SE, n = 10): 19.6 ± 4.9 s
- durations of clinging time compared to control (in words) (mice [4]; doses of Table 3): markedly reduced
